In one assay the target is T1, 12-lipoxygenase (Rattus norvegicus, UniProt F1LQ70).
T1 construct: The platelets were then sonicated at 4° C. and centrifuged at 100,000×g for 30 minutes to obtain a supernatant as a 12-lipoxygenase enzyme solution; from tissue; host or cells: Sprague Dawley rat platelets (from aortic blood), sonicated, 100,000 x g supernatant
T1 sequence (F1LQ70 1-663): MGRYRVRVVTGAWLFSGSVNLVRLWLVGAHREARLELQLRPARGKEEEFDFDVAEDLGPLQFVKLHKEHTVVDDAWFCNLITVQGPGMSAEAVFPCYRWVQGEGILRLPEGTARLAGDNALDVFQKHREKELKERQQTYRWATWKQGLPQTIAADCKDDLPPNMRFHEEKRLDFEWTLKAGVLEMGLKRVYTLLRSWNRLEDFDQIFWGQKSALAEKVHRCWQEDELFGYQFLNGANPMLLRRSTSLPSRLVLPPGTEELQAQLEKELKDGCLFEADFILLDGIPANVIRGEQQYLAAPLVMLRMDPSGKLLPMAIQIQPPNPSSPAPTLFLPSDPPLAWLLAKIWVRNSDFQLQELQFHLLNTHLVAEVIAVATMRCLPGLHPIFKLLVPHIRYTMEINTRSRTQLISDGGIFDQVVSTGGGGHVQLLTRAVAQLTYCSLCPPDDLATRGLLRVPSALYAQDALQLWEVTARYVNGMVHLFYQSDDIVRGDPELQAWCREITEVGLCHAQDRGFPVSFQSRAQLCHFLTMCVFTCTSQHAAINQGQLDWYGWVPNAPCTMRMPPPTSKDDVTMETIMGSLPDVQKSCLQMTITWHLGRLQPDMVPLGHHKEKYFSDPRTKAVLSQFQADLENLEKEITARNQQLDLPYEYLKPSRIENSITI
Nature of the assay: 12-lipoxygenase inhibition assay (rat platelet supernatant, arachidonic acid, HPLC of 12-HETE). The conditions noted are these: for maximum inhibition ratio of 12-lipoxygenase / inhibition at 10 µM: at a compound concentration of 10^-5 M, IC50 not obtained; for maximum inhibition ratio of 12-lipoxygenase: 10 µM; for inhibition at 10 µM: read-out: maximum inhibition ratio of 12-lipoxygenase. In kind it is biochemical, Sprague Dawley male rat (platelets). As for the experimental part:
A Sprague Dawley male rat was anesthetized with ether and bled from abdominal aorta using a syringe filled with about one-tenth volume of 3.8% sodium citrate. Blood was centrifuged at 180×g for 15 minutes at room temperature to pellet sanguineous platelet blood plasma. The resultant supernatant was again centrifuged at 1800×g for 10 minutes at 4° C. The pelleted platelets were rinsed twice with a washing buffer (50 mM Tris-hydrochloric acid buffer containing 154 mM sodium chloride and 2 mM EDTA, pH: 7.4). The platelets were then suspended in one-twentieth volume of a resuspension buffer (50 mM Tris-hydrochloric acid buffer containing 154 mM sodium chloride and 5.5 mM glucose, pH: 7.4). The platelets were then sonicated at 4° C. and centrifuged at 100,000×g for 30 minutes to obtain a supernatant as a 12-lipoxygenase enzyme solution.
The enzyme solution described above was diluted with the resuspension buffer above mentioned to prepare an assay solution so as to include about 2 mU/ml of 12-lipoxygenase. To an aliquot (300 μl) of the assay solution was added 1 μl of a 3 mM indomethacin-ethanol solution, 1 μl of an aqueous 300 mM reduced-glutathione solution, and 3 μl of varied concentrated test compounds solution in ethanol. The resultant mixture was incubated at 37° C. for 5 minutes. Subsequently, 3 μl of a 2.5 mM arachidonic acid solution in ethanol was added to incubate with for another 5 minutes at 37° C., then the reaction was ceased by the addition of 600 μl of methanol. After being centrifuged at 10,000×g for 5 minutes, 12-hydroxyeicosatetraenoic acid recovered in the supernatant was separated with a reverse phase high-performance liquid chromatography equipped with a C-18 column and measured the absorption of diene at 234 nm to quantify the activity of 12-lipoxygenase.
As test compounds were used the compounds of the present invention prepared in the same methods as in Example 4, Example 5 and Example 8 and the compounds prepared in the same methods as in Comparative Examples 1-5, and as a control was used esculetin (purchased from Tokyo Kasei), a known compound represented by the following formula: [drawing 33] and the test was conducted at varied concentrations.
The enzyme solution was prepared according to the same manner as in Test Example 1.
The inhibition assay was performed according to the same method as described in Test Example 1 except that the same samples used in measurement of the 5-lipoxygensase activity were used to estimate IC50 values. […]
They were measured in the same method as in Test Example 1.

Another assay has as its target T2, 5-lipoxygenase (Rattus norvegicus, UniProt P12527).
T2 construct: host or cells: RBL-1 (rat basophilic leukemia cells)
T2 sequence (P12527 1-673): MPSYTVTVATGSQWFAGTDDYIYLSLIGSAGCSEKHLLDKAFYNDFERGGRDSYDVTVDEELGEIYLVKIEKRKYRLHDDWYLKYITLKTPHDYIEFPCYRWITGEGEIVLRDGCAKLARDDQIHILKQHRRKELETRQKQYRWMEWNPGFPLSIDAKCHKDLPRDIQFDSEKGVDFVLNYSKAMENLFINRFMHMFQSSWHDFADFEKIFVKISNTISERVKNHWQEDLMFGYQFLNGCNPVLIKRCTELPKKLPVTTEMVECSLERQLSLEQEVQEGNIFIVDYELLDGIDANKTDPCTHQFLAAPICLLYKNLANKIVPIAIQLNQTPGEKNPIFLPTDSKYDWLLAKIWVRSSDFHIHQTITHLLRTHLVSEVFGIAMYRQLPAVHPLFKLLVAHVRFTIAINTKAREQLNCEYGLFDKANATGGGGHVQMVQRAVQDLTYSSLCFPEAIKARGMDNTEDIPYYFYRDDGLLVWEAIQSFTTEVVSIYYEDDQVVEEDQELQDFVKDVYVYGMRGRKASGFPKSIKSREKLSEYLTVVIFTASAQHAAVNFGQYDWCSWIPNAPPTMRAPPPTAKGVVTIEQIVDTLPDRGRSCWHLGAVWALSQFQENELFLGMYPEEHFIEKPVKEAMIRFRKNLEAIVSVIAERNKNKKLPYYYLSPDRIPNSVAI
Nature of the assay: 5-lipoxygenase inhibition assay (RBL-1 supernatant, arachidonic acid, HPLC of 5-HETE). The format is biochemical, rat (basophilic leukemia cells RBL-1, ATCC CRL1378). The following applies: Test Example 2, Table 2; read-out: IC50 value of 5-lipoxygenase. As for the experimental part: Rat basophilic leukemia cells (RBL-1, ATCC CRL1378) were cultured in Dulbecco modified Eagle's medium containing 10% new-born bovine serum.
Cultured cells were collected and washed twice with a 50 mM Tris-buffered saline (containing 154 mM sodium chloride, pH: 7.4, hereinafter described as TBS). The cell suspension (4×10^7 cells/ml) was then sonicated and centrifuged at 10,000×g for 10 minutes.
The resultant supernatant was used to prepare an assay solution.
To an aliquot (15 μl) of the enzyme solution (40 mU/ml equivalent) was added 185 μl of TBS, 50 μl of a 2 mM adenosine triphosphate in TBS, 50 μl of a 12 mM calcium chloride in TBS, 1 μl of a 3 mM indomethacin in ethanol solution, 1 μl of an aqueous 300 mM reduced glutathione solution, and 3 μl of varied concentrated test compounds solution in ethanol. The resultant mixture was incubated at 37° C. for 5 minutes. Subsequently, 3 μl of a 2.5 mM arachidonic acid solution in ethanol was added to incubate the mixture for 2 minutes at 37° C. The reaction was ceased by the addition of 600 μl of methanol. After being centrifuged at 10,000×g for 5 minutes, 5-hydroxyeicosatetraenoic acid recovered in the supernatant was separated with a reverse phase high-performance liquid chromatography equipped with a C-18 column and measured the absorption of diene at 234 nm to quantify the activity of the enzyme.
Using the compounds of the present invention prepared in the same manner as in Examples 1-30, and Examples 33-36 as test samples and known baicalein (purchased from Wako Junyaku Kogyo) represented by the following formula 30 as a control: [drawing 34] the tests were performed for dose dependent inhibition to estimate IC50 values
It was prepared in the same method as in Test Example 2.
They were measured in the same method as in Test Example 2.

The mark [1] stands for this setting: Test Example 1, Table 1 and text, read-out: 12-lipoxygenase IC50 value.
Where [2] appears, read: Test Example 2, Table 2, read-out: IC50 value of 12-lipoxygenase.
Where [3] appears, read: Test Example 3, Table 11, value belongs to the deacylated compound, read-out: 12-lipoxygenase inhibiting activities of deacylated compounds (IC50 values).

This is an account of results in US5574062A, “Coumarin derivative and use thereof” (Morinaga Milk Industry Co., Ltd., priority 1993, dated 1996).

Molecules are shown by their SMILES. Where “and” joins values, the source holds several entries; their conditions need not be identical. Identical values can stand only once. Like-named read-outs stand apart in the source and are kept apart here.

In the case of `COc1ccc2cc(-c3ccccc3)c(=O)oc2c1OC` [Comp. Example 1, reference compound], the “maximum inhibition ratio of 12-lipoxygenase” value at 12-lipoxygenase (listed as Comparative Example 1, 10 µM) is listed as “less than 10%”. Further, the inhibition at 10 µM on 12-lipoxygenase turned out to be 5%.
Turning to `O=c1oc2cc(O)ccc2cc1-c1ccc(Cl)cc1` [Comp. Example 2, reference compound], the “maximum inhibition ratio of 12-lipoxygenase” value on 12-lipoxygenase (listed as Comparative Example 2, 10 µM) was “less than 10%”. Also, on 12-lipoxygenase, the inhibition at 10 µM came out at 7%.
As a reminder, the IC50 is the concentration that gives 50% inhibition. `O=c1oc2c(O)c(O)ccc2c(-c2ccccc2)c1-c1ccccc1` [Comp. Example 4, reference compound]: the IC50 at 12-lipoxygenase (setting [1]) was 120 nM.
With `O=c1oc2c(O)c(O)ccc2cc1-c1ccc(O)cc1` [Comp. Example 5, reference compound], on 12-lipoxygenase, the “12-lipoxygenase inhibitory activity (in words)” value was “decreases greatly”. Moreover, the IC50 at 12-lipoxygenase (setting [1]) came out at 1100 nM.
For `O=c1oc2cc(O)c(O)cc2cc1-c1ccc(Br)cc1` [Example 1], the IC50 at 5-lipoxygenase worked out at 190 nM; on 12-lipoxygenase (setting [2]), 4.4 nM.
On to `O=c1oc2c(O)c(O)ccc2cc1-c1ccc(Cl)cc1` [Example 4, 3-(4-chlorophenyl)-7,8-dihydroxycoumarin], for which the IC50 on 5-lipoxygenase was 480 nM; on 12-lipoxygenase (setting [1]), 7.6 nM and ~1 nM; at 12-lipoxygenase (setting [2]), 7.6 nM; on 12-lipoxygenase (setting [3]), 7.6 nM.
On to `Cc1c(-c2ccc(Cl)cc2)c(=O)oc2cc(O)c(O)cc12` [Example 5, 3-(4-chlorophenyl)-4-methyl-6,7-dihydroxycoumarin], for which the IC50 at 5-lipoxygenase worked out at 410 nM; on 12-lipoxygenase (setting [1]) it was 9.2 nM; on 12-lipoxygenase (setting [2]), 9.2 nM; at 12-lipoxygenase (setting [3]) it was 9.2 nM.
Take `O=c1oc2cc(O)c(O)cc2cc1-c1ccccc1` [Example 6, 3-phenyl-6,7-dihydroxycoumarin]: the IC50 on 5-lipoxygenase turned out to be 270 nM; on 12-lipoxygenase (setting [2]), 16 nM.
In the same order, the values of `O=c1oc2cc(O)c(O)cc2cc1-c1ccc(F)cc1` [Example 7] are 400 nM and 8 nM.
`O=c1oc2cc(O)c(O)cc2cc1-c1ccc(Cl)cc1` [Example 8, 3-(4-chlorophenyl)-6,7-dihydroxycoumarin]: the IC50 was 260 nM on 5-lipoxygenase; 7 nM and ~1 nM at 12-lipoxygenase (setting [1]); 7 nM on 12-lipoxygenase (setting [2]); 7 nM at 12-lipoxygenase (setting [3]).
Consider `O=c1oc2cc(O)c(O)cc2cc1-c1cccc(Cl)c1` [Example 9, 3-(3-chlorophenyl)-6,7-dihydroxycoumarin], for which the IC50 came to 160 nM at 5-lipoxygenase, 4.3 nM on 12-lipoxygenase (setting [2]) and 4.3 nM on 12-lipoxygenase (setting [3]).
In the case of `O=c1oc2cc(O)c(O)cc2cc1-c1ccc(I)cc1` [Example 10, 3-(4-iodophenyl)-6,7-dihydroxycoumarin], the half-maximal inhibitory concentration (IC50) on 5-lipoxygenase turned out to be 140 nM; on 12-lipoxygenase (setting [2]), 5.8 nM; at 12-lipoxygenase (setting [3]), 5.8 nM.
`Cc1ccc(-c2cc3cc(O)c(O)cc3oc2=O)cc1` [Example 11]: the IC50 on 5-lipoxygenase turned out to be 180 nM; on 12-lipoxygenase (setting [2]), 11 nM.
With `Cc1cccc(-c2cc3cc(O)c(O)cc3oc2=O)c1` [Example 12], the figures for the 50% inhibitory concentration (IC50) at 5-lipoxygenase and at 12-lipoxygenase (setting [2]) were 280 nM and 11 nM, respectively.
As for `O=c1oc2cc(O)c(O)cc2cc1-c1ccc(C(F)(F)F)cc1` [Example 14, 3-(4-trifluoromethylphenyl)-6,7-dihydroxycoumarin], the IC50 at 5-lipoxygenase worked out at 270 nM; at 12-lipoxygenase (setting [2]), 13 nM.
With `O=c1oc2cc(O)c(O)cc2cc1-c1cccs1` [Example 15, 3-(thiophen-2-yl)-6,7-dihydroxycoumarin], the IC50 at 5-lipoxygenase is 330 nM; at 12-lipoxygenase (setting [2]), 21 nM.
As for `O=c1oc2cc(O)c(O)cc2cc1-c1ccsc1` [Example 16], the IC50 is 420 nM at 5-lipoxygenase and 22 nM at 12-lipoxygenase (setting [2]).
With `CCc1ccc(-c2cc3ccc(O)c(O)c3oc2=O)cc1` [Example 19], the IC50 on 5-lipoxygenase amounted to 250 nM; at 12-lipoxygenase (setting [2]), 14 nM.
Turning to `O=c1oc2c(O)c(O)ccc2cc1-c1cccc(Cl)c1` [Example 22, 3-(3-chlorophenyl)-7,8-dihydroxycoumarin], the half-inhibitory concentration (IC50) at 5-lipoxygenase stood at 270 nM; at 12-lipoxygenase (setting [2]) it was 9.6 nM; on 12-lipoxygenase (setting [3]) it was 9.6 nM.
Turning to `O=c1oc2c(O)c(O)ccc2cc1-c1ccc([N+](=O)[O-])cc1` [Example 23, 3-(4-nitrophenyl)-7,8-dihydroxycoumarin], the 50% inhibitory concentration (IC50) at 5-lipoxygenase is 530 nM; at 12-lipoxygenase (setting [2]) it was 34 nM.
Turning to `O=c1oc2c(O)c(O)ccc2cc1-c1ccc(Br)cc1` [Example 25, 3-(4-bromophenyl)-7,8-dihydroxycoumarin], the IC50 on 5-lipoxygenase was 420 nM; on 12-lipoxygenase (setting [2]) it was 13 nM.
Regarding `COc1ccc(-c2cc3ccc(O)c(O)c3oc2=O)cc1` [Example 27, 3-(4-methoxyphenyl)-7,8-dihydroxycoumarin], the values for the half-maximal inhibitory concentration (IC50) on 5-lipoxygenase and on 12-lipoxygenase (setting [2]) were 660 nM and 27 nM, respectively.
